PMC10360169 (Frontiers in Immunology, 2023)

Assays:
[1] = molecular target: HLA-B*15:01 (Homo sapiens, UniProt P01889, A329T/A93T/A95T/C349S/D201E/D98Y/E187L/E204Q/E69M/E70A/K202T/N87E/Q94N/R155S/R180W/S121R/S35A/S48A/V306I/V36M/Y140S/Y91S); parameters: method as in ref [40]-[42] = [40]; 40 Rasmussen M Harndahl M Kristensen A Nielsen I Jorgensen K Stryhn A . Large Scale analysis of peptide - HLA-I stability . ( 2014 ). || [41]; 41 Harndahl M Lamberth K Justesen S Røder G Madsen M Nielsen M . Large Scale analysis of peptide-HLA class I interactions . ( 2007 ). || [42]; 42 Harndahl M Lamberth K Justesen S Røder G Madsen M Sylvester-Hvid C . Large Scale analysis of peptide-HLA class I interactions . ( 2006 ).; settings: IEDB; threshold minimum affinity of 500 nM or minimum half-life of 1 h; ref [40]-[42]; cited from earlier work
[2] = test system: Acar3; format: binding, great reed warbler Acrocephalus arundinaceus; settings: for Stability T½ of Acar3 in complex with the peptide: Table S1, top 94 PSCPL-scoring peptides, SPA, 10µM peptide, 125I β2m, folding over night at 18°C, dissociation measured up to 24 hours at 37°C; for Stability T½ (h), peptide - Acar3: Table S5, half-life estimated from dissociation in scintillation proximity assay
[3] = test system: Acar19; format: binding, great reed warbler Acrocephalus arundinaceus; settings: Table S5, half-life estimated from dissociation in scintillation proximity assay
[4] = molecular target: HLA-A*32:07 (Homo sapiens, UniProt P04439, A270S/D101S/D185E/E176V/E277Q/F133L/F33S/G103R/G107R/G231S/H175R/I121M/I218V/I322F/K168Q/L105A/L300P/L318F/M331R/P208A/P217A/Q94H/R106L/R138Q/S129P/T104I/T323A/T345S/V100E/V321M/V358M); parameters: method as in ref [40], [41], [43] = [40]; 40 Rasmussen M Harndahl M Kristensen A Nielsen I Jorgensen K Stryhn A . Large Scale analysis of peptide - HLA-I stability . ( 2014 ). || [41]; 41 Harndahl M Lamberth K Justesen S Røder G Madsen M Nielsen M . Large Scale analysis of peptide-HLA class I interactions . ( 2007 ). || [43]; 43 Harndahl M Lamberth K Røder G Justesen S Madsen M Nielsen M . Large Scale analysis of peptide-HLA class I interactions . ( 2010 ).; settings: IEDB; threshold minimum affinity of 500 nM or minimum half-life of 1 h; ref [40], [41], [43]; cited from earlier work
[5] = molecular target: HLA-B*35:01 (Homo sapiens, UniProt P01889, A329T/A93T/A95T/C349S/D201E/D98Y/E176V/E187L/E204Q/E69T/I218V/K202T/L119I/Q94N/R155S/R180L/S121R/S35A/S48A/T118I/V127L/V306I/V36M/Y140S/Y91F); parameters: method as in ref [40]-[43] = [40]; 40 Rasmussen M Harndahl M Kristensen A Nielsen I Jorgensen K Stryhn A . Large Scale analysis of peptide - HLA-I stability . ( 2014 ). || [41]; 41 Harndahl M Lamberth K Justesen S Røder G Madsen M Nielsen M . Large Scale analysis of peptide-HLA class I interactions . ( 2007 ). || [42]; 42 Harndahl M Lamberth K Justesen S Røder G Madsen M Sylvester-Hvid C . Large Scale analysis of peptide-HLA class I interactions . ( 2006 ). || [43]; 43 Harndahl M Lamberth K Røder G Justesen S Madsen M Nielsen M . Large Scale analysis of peptide-HLA class I interactions . ( 2010 ).; settings: IEDB; threshold minimum affinity of 500 nM or minimum half-life of 1 h; ref [40]-[43]; cited from earlier work
[6] = molecular target: HLA-A*24:02 (Homo sapiens, UniProt P04439, D101N/D140Y/D185E/E176V/E190D/F33S/G103R/G107R/I119L/I121M/I306V/K335N/L105A/L180Q/L300P/N151K/N90K/Q86E/Q94H/R106L/R138H/R89G/T104I/T345S/V100E/W191G/Y123F); settings: below the IEDB thresholds; no reference given; cited from earlier work
[7] = molecular target: HLA-A*68:23 (Homo sapiens, UniProt P04439, A269V/D185E/E176V/E277Q/E87N/F33Y/G231S/I121R/I166T/I218V/L180W/L300P/L318F/N151K/P208A/P217A/Q86R/R169H/T345S); parameters: method as in ref [40], [41], [43] = [40]; 40 Rasmussen M Harndahl M Kristensen A Nielsen I Jorgensen K Stryhn A . Large Scale analysis of peptide - HLA-I stability . ( 2014 ). || [41]; 41 Harndahl M Lamberth K Justesen S Røder G Madsen M Nielsen M . Large Scale analysis of peptide-HLA class I interactions . ( 2007 ). || [43]; 43 Harndahl M Lamberth K Røder G Justesen S Madsen M Nielsen M . Large Scale analysis of peptide-HLA class I interactions . ( 2010 ).; settings: IEDB; threshold minimum affinity of 500 nM or minimum half-life of 1 h; ref [40], [41], [43]; cited from earlier work
[8] = molecular target: HLA-B*58:01 (Homo sapiens, UniProt P01889, A329T/C349S/D201E/D98Y/E176V/E187L/E204Q/E69T/G107R/I218V/I90N/K202T/L105A/L119I/N104I/N87E/Q89R/Q94S/R106L/R155S/R180L/R86G/S101N/S121R/S35A/S48A/T118I/V127L/V306I/V36M/Y140S/Y91M); settings: IEDB; threshold minimum affinity of 500 nM or minimum half-life of 1 h; ref [40], [41], [43]; cited from earlier work
[9] = molecular target: HLA-A*32:15 (Homo sapiens, UniProt P04439, A270S/D101S/D185E/E176V/E277Q/E87N/F133L/G103R/G107R/G231S/H175R/I121M/I218V/I322F/K168Q/L105A/L300P/L318F/M331R/P208A/P217A/Q86R/Q94H/R106L/R138Q/S129P/T104I/T323A/T345S/V100E/V321M/V358M); parameters: method as in ref [40], [41], [43] = [40]; 40 Rasmussen M Harndahl M Kristensen A Nielsen I Jorgensen K Stryhn A . Large Scale analysis of peptide - HLA-I stability . ( 2014 ). || [41]; 41 Harndahl M Lamberth K Justesen S Røder G Madsen M Nielsen M . Large Scale analysis of peptide-HLA class I interactions . ( 2007 ). || [43]; 43 Harndahl M Lamberth K Røder G Justesen S Madsen M Nielsen M . Large Scale analysis of peptide-HLA class I interactions . ( 2010 ).; settings: IEDB; threshold minimum affinity of 500 nM or minimum half-life of 1 h; ref [40], [41], [43]; cited from earlier work

| Sequence | Stability T½ (h), peptide - Acar19 [3] | other results |
| --- | --- | --- |
| AMSAQAAAF [P1] |  | binding to HLA-B*15:01 [1]: binds; Stability T½ of Acar3 in complex with the peptide [2]: 678 min; Stability T½ (h), peptide - Acar3 [2]: 11.3 h |
| DYQGLPLEF [9-mer peptide] | 3.5 h | Stability T½ of Acar3 in complex with the peptide [2]: 12 min; Stability T½ (h), peptide - Acar3 [2]: 0.2 h |
| MTMITPPTF [P3] |  | binding to HLA-A*32:07 [4]: binding partners; binding to HLA-B*35:01 [5]: binding partners; binding to HLA-A*24:02 [6]: weak binding; binding to HLA-A*68:23 [7]: binding partners; binding to HLA-B*58:01 [8]: binding partners; Stability T½ of Acar3 in complex with the peptide [2]: 618 min; Stability T½ (h), peptide - Acar3 [2]: 10.3 h; binding to HLA-A*32:15 [9]: binding partners |
| TRAPAPFPL [9-mer peptide] | 0.1 h | Stability T½ (h), peptide - Acar3 [2]: 0.1 h |
| TTLSIYFLL [9-mer peptide] | 0.1 h |  |
| TYMFTHIDL [9-mer peptide] | 0.1 h |  |
| TYSPALNKM [9-mer peptide] | 0.1 h |  |
| VMKRNFIDF [9-mer peptide] | 0.1 h |  |
| VQHNIKHSF [9-mer peptide] | 0.1 h |  |
| VSFSMVGLF [9-mer peptide] | 0.1 h |  |
| VTNRHEEKF [9-mer peptide] | 0.1 h |  |
| WFGHLASDW [9-mer peptide] | 0.1 h |  |
| WYAPVALLF [9-mer peptide] | 0.2 h |  |
| YFDPANGKF [9-mer peptide] | 0.1 h |  |
| YISPIFIPM [9-mer peptide] | 0.1 h |  |
| YNAELLVAL [9-mer peptide] | 0.2 h |  |
| YQAGISAAL [9-mer peptide] | 0.2 h |  |
| YRSMIAFKL [9-mer peptide] | 0.1 h |  |
| YTMELCGAM [9-mer peptide] | 0.1 h |  |
| YTYPIAHTA [9-mer peptide] | 0.1 h |  |
| YYNAFHWAI [9-mer peptide] | 0.4 h |  |
| YYNAFQWAI [9-mer peptide] | 0.4 h |  |
| YYSNKVFPI [9-mer peptide] | 0.2 h |  |
